Experimental data published in ChEMBL document CHEMBL3396994, “Novel 4-aryl-pyrido[1,2-c]pyrimidines with dual SSRI and 5-HT1A activity. Part 4” (Eur J Med Chem, 2015).

How the values were obtained:
[1] = molecular target: Sodium-dependent serotonin transporter (Rattus norvegicus, UniProt P31652); assay: Displacement of [3H]citalopram from rat brain cerebral cortex SERT by liquid scintillation counting analysis; assay type: tissue-based
[2] = molecular target: T1, 5-hydroxytryptamine receptor 1A (Rattus norvegicus, UniProt P19327); assay: Displacement of [3H]8-OH-DPAT from rat brain hippocampus 5-HT1A receptor by radioligand binding assay
T1 sequence (P19327 whole entry): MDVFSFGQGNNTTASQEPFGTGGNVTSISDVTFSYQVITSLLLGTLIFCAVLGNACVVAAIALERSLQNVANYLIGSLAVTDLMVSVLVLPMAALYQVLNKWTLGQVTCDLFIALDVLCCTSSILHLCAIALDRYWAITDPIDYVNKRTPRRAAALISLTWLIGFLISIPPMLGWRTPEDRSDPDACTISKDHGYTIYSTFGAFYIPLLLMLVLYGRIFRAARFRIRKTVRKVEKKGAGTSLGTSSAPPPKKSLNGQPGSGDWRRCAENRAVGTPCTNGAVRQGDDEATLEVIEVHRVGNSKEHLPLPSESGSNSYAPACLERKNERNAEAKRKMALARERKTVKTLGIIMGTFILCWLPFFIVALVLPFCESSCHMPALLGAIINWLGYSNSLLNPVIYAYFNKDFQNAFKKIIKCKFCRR

[3] = Metabolic stability in human liver microsomes assessed as compound remaining at 10 uM after 60 mins by LC/MS analysis; assay type: ADME; conditions: read-out: Stability
[4] = Half life in human liver microsomes at 10 uM by LC/MS analysis; assay type: ADME

Chain of Sodium-dependent serotonin transporter (P31652 whole entry): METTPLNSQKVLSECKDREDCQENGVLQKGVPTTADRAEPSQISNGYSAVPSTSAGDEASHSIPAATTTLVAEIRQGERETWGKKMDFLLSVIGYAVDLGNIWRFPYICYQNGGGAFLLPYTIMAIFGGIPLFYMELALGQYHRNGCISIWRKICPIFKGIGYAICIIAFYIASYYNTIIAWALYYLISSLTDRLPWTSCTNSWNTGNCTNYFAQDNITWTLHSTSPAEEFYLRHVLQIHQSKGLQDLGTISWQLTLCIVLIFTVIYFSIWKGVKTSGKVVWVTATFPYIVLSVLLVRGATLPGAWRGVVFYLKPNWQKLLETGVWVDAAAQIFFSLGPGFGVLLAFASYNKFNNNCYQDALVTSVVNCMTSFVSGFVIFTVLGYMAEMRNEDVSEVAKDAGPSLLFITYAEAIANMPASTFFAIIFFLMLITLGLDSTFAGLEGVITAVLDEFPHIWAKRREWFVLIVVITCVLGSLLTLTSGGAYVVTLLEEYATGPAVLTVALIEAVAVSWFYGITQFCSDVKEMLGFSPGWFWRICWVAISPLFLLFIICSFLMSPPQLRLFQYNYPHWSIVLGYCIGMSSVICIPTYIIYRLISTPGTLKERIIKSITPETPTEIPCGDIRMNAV

Row | Compound | Ki [1] [nM] | Ki [2] [nM] | remaining at 1 h, 10 µM [3] [%] | half-life at 10 µM [4] [h]
1 | COc1ccc(-c2c(=O)n(CCCCN3CC=C(c4c[nH]c5ccc(Br)cc45)CC3)c(=O)n3ccccc23)cc1 | 326 | 23.1 | – | –
2 | O=c1c(-c2ccccc2F)c2ccccn2c(=O)n1CCCCN1CC=C(c2c[nH]c3ccc(Cl)cc23)CC1 | 435 | 97.1 | – | –
3 | COc1ccc(-c2c(=O)n(CCCCN3CC=C(c4c[nH]c5ccc(Cl)cc45)CC3)c(=O)n3ccccc23)cc1 | 312 | 278 | – | –
4 | O=c1c(-c2ccc(Cl)cc2)c2ccccn2c(=O)n1CCCCN1CC=C(c2c[nH]c3ccc(F)cc23)CC1 | 58.2 | 265 | 50.2 | 1
5 | O=c1c(-c2ccccc2Cl)c2ccccn2c(=O)n1CCCCN1CC=C(c2c[nH]c3ccc(Cl)cc23)CC1 | 774 | 74.4 | – | –
6 | Cc1ccccc1-c1c(=O)n(CCCCN2CC=C(c3c[nH]c4ccc(Cl)cc34)CC2)c(=O)n2ccccc12 | 740 | 212 | – | –
7 | O=c1c(-c2ccc(F)cc2)c2ccccn2c(=O)n1CCCCN1CC=C(c2c[nH]c3ccc(Br)cc23)CC1 | 404 | 79.1 | 51.4 | 1.03
8 | Cc1ccc(-c2c(=O)n(CCCCN3CC=C(c4c[nH]c5ccc(Br)cc45)CC3)c(=O)n3ccccc23)cc1 | 949 | 145 | – | –
9 | Cc1ccccc1-c1c(=O)n(CCCCN2CC=C(c3c[nH]c4ccc(F)cc34)CC2)c(=O)n2ccccc12 | 58.8 | 295 | 60.5 | 1.26
10 | COc1ccccc1-c1c(=O)n(CCCCN2CC=C(c3c[nH]c4ccc(Br)cc34)CC2)c(=O)n2ccccc12 | 1200 | 33.1 | – | –
11 | O=c1c(-c2ccccc2Cl)c2ccccn2c(=O)n1CCCCN1CCC(c2c[nH]c3ccc(F)cc23)CC1 | 88.6 | 15.9 | – | –
12 | Cc1ccc(-c2c(=O)n(CCCCN3CC=C(c4c[nH]c5ccc(F)cc45)CC3)c(=O)n3ccccc23)cc1 | 30.3 | 153 | – | –
13 | O=c1c(-c2ccc(Cl)cc2)c2ccccn2c(=O)n1CCCCN1CC=C(c2c[nH]c3ccc(Br)cc23)CC1 | 1000 | 61.6 | – | –
14 | O=c1c(-c2ccc(F)cc2)c2ccccn2c(=O)n1CCCCN1CC=C(c2c[nH]c3ccc(Cl)cc23)CC1 | 329 | 106 | – | –
15 | O=c1c(-c2ccccc2)c2ccccn2c(=O)n1CCCCN1CC=C(c2c[nH]c3ccc(Cl)cc23)CC1 | 322 | 126 | – | –
16 | Cc1ccccc1-c1c(=O)n(CCCCN2CC=C(c3c[nH]c4ccc(Br)cc34)CC2)c(=O)n2ccccc12 | 879 | 71.5 | – | –
17 | O=c1c(-c2ccccc2F)c2ccccn2c(=O)n1CCCCN1CC=C(c2c[nH]c3ccc(Br)cc23)CC1 | 836 | 32.5 | – | –
18 | O=c1c(-c2ccccc2)c2ccccn2c(=O)n1CCCCN1CC=C(c2c[nH]c3ccc(Br)cc23)CC1 | 840 | 40.1 | 63.2 | 1.37
19 | COc1ccccc1-c1c(=O)n(CCCCN2CC=C(c3c[nH]c4ccc(Cl)cc34)CC2)c(=O)n2ccccc12 | 718 | 97.8 | 55.6 | 1.13
20 | Cc1ccc(-c2c(=O)n(CCCCN3CC=C(c4c[nH]c5ccc(Cl)cc45)CC3)c(=O)n3ccccc23)cc1 | 408 | 267 | 64.3 | 1.41

These reach a lower Ki [1]. Values come first.

Row | Ki [1] [nM] | Ki [2] [nM] | remaining at 1 h, 10 µM [3] [%] | half-life at 10 µM [4] [h] | Compound
21 | 25.7 | 9.2 | – | – | O=c1c(-c2ccccc2F)c2ccccn2c(=O)n1CCCCN1CCC(c2c[nH]c3ccc(F)cc23)CC1
22 | 15.6 | 81.7 | – | – | COc1ccc(-c2c(=O)n(CCCCN3CC=C(c4c[nH]c5ccc(F)cc45)CC3)c(=O)n3ccccc23)cc1
23 | 3.9 | 116 | – | – | O=c1c(-c2ccccc2F)c2ccccn2c(=O)n1CCCCN1CC=C(c2c[nH]c3ccc(F)cc23)CC1
24 | 19.4 | 12.8 | – | – | O=c1c(-c2ccc(F)cc2)c2ccccn2c(=O)n1CCCCN1CCC(c2c[nH]c3ccc(F)cc23)CC1
25 | 20.7 | 5.6 | – | – | COc1ccccc1-c1c(=O)n(CCCCN2CCC(c3c[nH]c4ccc(F)cc34)CC2)c(=O)n2ccccc12
26 | 11.3 | 220 | – | – | O=c1c(-c2ccc(F)cc2)c2ccccn2c(=O)n1CCCCN1CC=C(c2c[nH]c3ccc(F)cc23)CC1
27 | 20.8 | 251 | 67.9 | 1.57 | COc1ccccc1-c1c(=O)n(CCCCN2CC=C(c3c[nH]c4ccc(F)cc34)CC2)c(=O)n2ccccc12
28 | 25.5 | 84.4 | – | – | O=c1c(-c2ccc(Cl)cc2)c2ccccn2c(=O)n1CCCCN1CCC(c2c[nH]c3ccc(F)cc23)CC1
29 | 27.1 | 118 | 63.4 | 1.37 | O=c1c(-c2ccccc2)c2ccccn2c(=O)n1CCCCN1CC=C(c2c[nH]c3ccc(F)cc23)CC1
30 | 5.2 | 127 | – | – | O=c1c(-c2ccccc2Cl)c2ccccn2c(=O)n1CCCCN1CC=C(c2c[nH]c3ccc(F)cc23)CC1
31 | 27.4 | 38.5 | – | – | Cc1ccc(-c2c(=O)n(CCCCN3CCC(c4c[nH]c5ccc(F)cc45)CC3)c(=O)n3ccccc23)cc1
32 | 15.6 | 12.4 | – | – | O=c1c(-c2ccccc2)c2ccccn2c(=O)n1CCCCN1CCC(c2c[nH]c3ccc(F)cc23)CC1
